This note sets out measurements from patent publication US10370343B2, “[6,6] Fused bicyclic HDAC8 inhibitors” (FORMA Therapeutics, Inc., priority 2015, dated 2019).

Counter-ions that a name gives are not always drawn.

In the assay the target is T1, Full length human recombinant HDAC8 protein (Homo sapiens, UniProt Q9BY41).
T1 construct: Full length human recombinant HDAC8 protein was expressed in baculoviral system; made in house
T1 sequence (Q9BY41 1-377): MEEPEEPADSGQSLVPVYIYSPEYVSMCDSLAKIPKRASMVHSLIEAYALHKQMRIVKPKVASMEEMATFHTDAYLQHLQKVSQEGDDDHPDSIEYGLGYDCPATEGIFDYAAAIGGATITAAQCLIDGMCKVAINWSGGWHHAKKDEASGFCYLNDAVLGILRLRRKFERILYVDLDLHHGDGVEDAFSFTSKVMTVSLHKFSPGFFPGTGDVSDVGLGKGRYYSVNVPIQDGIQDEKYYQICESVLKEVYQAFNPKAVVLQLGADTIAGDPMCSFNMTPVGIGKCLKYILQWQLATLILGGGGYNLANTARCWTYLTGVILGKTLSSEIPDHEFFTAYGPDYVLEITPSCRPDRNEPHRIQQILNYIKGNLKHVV
The experiment in a line: In vitro histone deacetylase assay: enzymatic HDAC8 electrophoretic mobility shift assay. In kind it is biochemical. Conditions: electrophoretic mobility shift assay; enzyme 1 nM; 2 μM fluorescently labeled peptide substrate RHKK(Ac)-NH2; 25° C.; 12 concentrations; read-out: HDAC8 IC50. The method, then:
The enzymatic HDAC8 assay was performed using electrophoretic mobility shift assay. Full length human recombinant HDAC8 protein was expressed in baculoviral system and purified by affinity chromatography. The enzymatic reactions were assembled in 384 well plates in a total volume of 25 μL in a reaction buffer composing: 100 mM HEPES, pH7.5, 25 mM KCl, 0.1% bovine serum albumin, 0.01% Triton X-100, 1% DMSO (from compounds) 2 μM of the fluorescently labeled peptide substrate and enzyme. The enzyme was added at a final concentration of 1 nM. The peptide substrate RHKK(Ac)—NH2 was used. The compounds were tested at 12 concentrations spaced by 3× dilution intervals. Negative control samples (0%-inhibition in the absence of inhibitor) and positive control samples (100%-inhibition) were assembled in replicates of four in each assay plate. The reactions were incubated at 25° C. and quenched by the addition of 45 μL of termination buffer (100 mM HEPES, pH 7.5, 0.01% Triton X-100, 0.05% SDS).
The terminated assay plates were analyzed on LabChip® 3000 microfluidic electrophoresis instrument (Perkin Elmer/Caliper Life Sciences). The fluorescence intensity of the electrophoretically separated de-acetylated product and substrate peptide was measured. Activity in each sample was determined as the product to sum ratio (PSR): P/(S+P), where P is the peak height of the product peptide and S is the peak height of the substrate peptide. Percent inhibition (Pinh) is determined using the following equation: Pinh=(PSR0%−PSRinh)/(PSR0%−PSR100%)*100, where PSRinh is the product sum ratio in the presence of inhibitor, PSR0% is the average product sum ration in the absence of inhibitor and PSR100% is the average product sum ratio in 100%-inhibition control samples. The IC50 values of inhibitors were determined by fitting the %-inhibition curves with 4 parameter dose-response model using XLfit 4 software.
(Mobility shift assays separate free from complexed probe on a gel.)

One may read the IC50 as the concentration that gives 50% inhibition. `COc1ccc(CN2C(=O)[C@@H](C)Oc3ccc(C(=O)NO)cc32)cc1` (single isomer, unassigned) [Compound I-162]: the concentration for half-maximal inhibition (IC50) fell in the range of 25 to 100 nM.
Take `CN1CC(C(=O)NC2CCOCC2)Oc2ccc(C(=O)NO)cc21` (centres unmarked) [Compound I-1, N^6-hydroxy-4-methyl-N^2-(tetrahydro-2H-pyran-4-yl)-3,4-dihydro-2H-benzo[b][1,4]oxazine-2,6-dicarboxamide hydrochloride]: the IC50 is more than 1000 nM.
As for `O=C(NO)c1ccc2c(c1)N(Cc1ccccc1)CC(C(=O)NC1CCOCC1)O2` (centres unmarked) [Compound I-2, 4-benzyl-N^6-hydroxy-N^2-(tetrahydro-2H-pyran-4-yl)-3,4-dihydro-2H-benzo[b][1,4]oxazine-2,6-dicarboxamide], the IC50 was 25 to 100 nM.
On to `CN1CC(C(=O)N2CC3(CC3)c3ccccc32)Oc2ccc(C(=O)NO)cc21` (centres unmarked) [Compound I-3, N-hydroxy-4-methyl-2-(spiro[cyclopropane-l,3′-indoline]-1′-carbonyl)-3,4-dihydro-2H-benzo[b][1,4]oxazine-6-carboxamide hydrochloride], for which the IC50 lay in the range of 100 to 1000 nM.
Consider `O=C(NO)c1ccc2c(c1)N(Cc1ccccc1)CC(C(=O)N1CC3(CC3)c3ccccc31)O2` (centres unmarked) [Compound I-4, 4-benzyl-N-hydroxy-2-(spiro[cyclopropane-l,3′-indoline]-1′ carbonyl)-3,4-dihydro-2H-benzo[b][1,4]oxazine-6-carboxamide hydrochloride], for which the 50% inhibitory concentration (IC50) lay within 25 to 100 nM.
Turning to `CN1CC(C(=O)NCc2ccccc2)Oc2ccc(C(=O)NO)cc21` (centres unmarked) [Compound I-5, N^2-benzyl-N^6-hydroxy-4-methyl-3,4-dihydro-2H-benzo[b][1,4]oxazine-2,6-dicarboxamide hydrochloride], the IC50 lay within 25 to 100 nM.
Regarding `O=C(NO)c1ccc2c(c1)N(Cc1ccccc1)CC(C(=O)NCc1ccccc1)O2` (centres unmarked) [Compound I-6, N^2,4-dibenzyl-N^6-hydroxy-3,4-dihydro-2H-benzo[b][1,4]oxazine-2,6-dicarboxamide], the IC50 lay in the range of 25 to 100 nM.
Turning to `CN1CC(C(=O)NC2CCOCC2)Oc2cc(C(=O)NO)ccc21` (centres unmarked) [Compound I-7, N^7-hydroxy-4-methyl-N^2-(tetrahydro-2H-pyran-4-yl)-3,4-dihydro-2H-benzo[b][1,4]oxazine-2,7-dicarboxamide], the IC50 lay within 100 to 1000 nM.
As to `O=C(NO)c1ccc2c(c1)OC(C(=O)NC1CCOCC1)CN2Cc1ccccc1` (centres unmarked) [Compound I-8, 4-benzyl-N^7-hydroxy-N^2-(tetrahydro-2H-pyran-4-yl)-3,4-dihydro-2H-benzo[b][1,4]oxazine-2,7-dicarboxamide], the IC50 lay within 100 to 1000 nM.
The value for `CN1CC(C(=O)N2CC3(CC3)c3ccccc32)Oc2cc(C(=O)NO)ccc21` (centres unmarked) [Compound I-9, N-hydroxy-4-methyl-2-(spiro[cyclopropane-1,3′-indoline]-1′-carbonyl)-3,4-dihydro-2H-benzo[b][1,4]oxazine-7-carboxamide] was less than 25 nM; that for `O=C(NO)c1ccc2c(c1)OC(C(=O)N1CC3(CC3)c3ccccc31)CN2Cc1ccccc1` (centres unmarked) [Compound I-10, 4-benzyl-N-hydroxy-2-(spiro[cyclopropane-1,3′-indoline]-1′-carbonyl)-3,4-dihydro-2H-benzo[b][1,4]oxazine-7-carboxamide] was 25 to 100 nM; that for `CN1CC(C(=O)NCc2ccccc2)Oc2cc(C(=O)NO)ccc21` (centres unmarked) [Compound I-11, N^2-benzyl-N^7-hydroxy-4-methyl-3,4-dihydro-2H-benzo[b][1,4]oxazine-2,7-dicarboxamide] was 25 to 100 nM.
Turning to `O=C(NO)c1ccc2c(c1)OC(C(=O)NCc1ccccc1)CN2Cc1ccccc1` (centres unmarked) [Compound I-12, N^2,4-dibenzyl-N^7-hydroxy-3,4-dihydro-2H-benzo[b][1,4]oxazine-2,7-dicarboxamide], the IC50 was in the range of 100 to 1000 nM.
To `COCCn1c(N2CCCc3c(C(=O)NO)cccc32)nc2ccccc21` [Compound I-13, N-hydroxy-1-(1-(2-methoxyethyl)-1H-benzo[d]imidazol-2-yl)-1,2,3,4-tetrahydroquinoline-5-carboxamide] belongs more than 1000 nM; to `O=C(NO)c1cccc2c1CCCN2c1nc2ccccc2[nH]1` [Compound I-14, 1-(1H-1,3-benzodiazol-2-yl)-N-hydroxy-1,2,3,4-tetrahydroquinoline-5-carboxamide], more than 1000 nM; to `O=C(NO)c1ccc2c(c1)N(Cc1cccc(S(=O)(=O)C(F)(F)F)c1)CCS2(=O)=O` [Compound I-15, N-hydroxy-4-(3-((trifluoromethyl)sulfonyl)benzyl)-3,4-dihydro-2H-benzo[b][1,4]thiazine-6-carboxamide-1,1-dioxide], less than 25 nM.
With `CC(c1ccc(S(C)(=O)=O)cc1)N1CCS(=O)(=O)c2ccc(C(=O)NO)cc21` (centres unmarked) [Compound I-16, N-hydroxy-4-(1-(4-(methylsulfonyl)phenyl)ethyl)-3,4-dihydro-2H-benzo[b][1,4]thiazine-6-carboxamide-1,1-dioxide], the half-inhibitory concentration (IC50) is less than 25 nM.
To `O=C(NO)c1ccc2c(c1)N(Cc1ccc(S(=O)(=O)C(F)(F)F)cc1)C(=O)CO2` [Compound I-17, N-hydroxy-3-oxo-4-(4-((trifluoromethyl)sulfonyl)benzyl)-3,4-dihydro-2H-benzo[b][1,4]oxazine-6-carboxamide] belongs less than 25 nM; to `O=C(NO)c1ccc2c(c1)N(Cc1cccc(S(=O)(=O)C(F)(F)F)c1)C(=O)CO2` [Compound I-18, N-hydroxy-3-oxo-4-(3-((trifluoromethyl)sulfonyl)benzyl)-3,4-dihydro-2H-benzo[b][1,4]oxazine-6-carboxamide], 100 to 1000 nM; to `O=C(NO)c1ccc2c(c1)N(Cc1ccc(OC(F)(F)F)cc1)CCO2` [Compound I-19, N-hydroxy-4-(4-(trifluoromethoxy)benzyl)-3,4-dihydro-2H-benzo[b][1,4]oxazine-6-carboxamide], 25 to 100 nM.
`O=C(NO)c1ccc2c(c1)N(Cc1cn3ccsc3n1)CCO2` [Compound I-21, N-hydroxy-4-(imidazo[2,1-b]thiazol-6-ylmethyl)-3,4-dihydro-2H-benzo[b][1,4]oxazine-6-carboxamide]: the IC50 is 100 to 1000 nM.
For `C=C(C)CN1CCOc2ccc(C(=O)NO)cc21` [Compound I-22, N-hydroxy-4-(2-methylallyl)-3,4-dihydro-2H-benzo[b][1,4]oxazine-6-carboxamide], the concentration for half-maximal inhibition (IC50) fell in the range of 100 to 1000 nM.
In the case of `O=C(NO)c1ccc2c(c1)N(Cc1c(Cl)cccc1Cl)CCO2` [Compound I-23, 4-(2,6-dichlorobenzyl)-N-hydroxy-3,4-dihydro-2H-benzo[b][1,4]oxazine-6-carboxamide], the IC50 is 100 to 1000 nM.
The value for `O=C(NO)c1ccc2c(c1)N(Cc1cccc(F)c1)CCO2` [Compound I-24, 4-(3-fluorobenzyl)-N-hydroxy-3,4-dihydro-2H-benzo[b][1,4]oxazine-6-carboxamide] was less than 25 nM.
`O=C(NO)c1ccc2c(c1)N(Cc1ccccc1OC(F)(F)F)CCO2` [Compound I-25, N-hydroxy-4-(2-(trifluoromethoxy)benzyl)-3,4-dihydro-2H-benzo[b][1,4]oxazine-6-carboxamide]: the IC50 fell in the range of 100 to 1000 nM.
For the compound `O=C(NO)c1ccc2c(c1)N(CC(=O)N1CCOCC1)CCO2` [Compound I-26, N-hydroxy-4-(2-morpholino-2-oxoethyl)-3,4-dihydro-2H-benzo[b][1,4]oxazine-6-carboxamide], the IC50 was more than 1000 nM.
For the compound `CC(C)n1c(CN2CCOc3ccc(C(=O)NO)cc32)nc2ccccc21` [Compound I-28, N-hydroxy-4-((1-isopropyl-1H-benzo[d]imidazol-2-yl)methyl)-3,4-dihydro-2H-benzo[b][1,4]oxazine-6-carboxamide], the half-inhibitory concentration (IC50) is more than 1000 nM.
Regarding `COCCn1c(CN2CCOc3ccc(C(=O)NO)cc32)nc2ccccc21` [Compound I-29, N-hydroxy-4-((1-(2-methoxyethyl)-1H-benzo[d]imidazol-2-yl)methyl)-3,4-dihydro-2H-benzo[b][1,4]oxazine-6-carboxamide], the half-inhibitory concentration (IC50) is 100 to 1000 nM.
For the compound `O=C(NO)c1ccc2c(c1)N(Cc1nc3ccccc3n1CC1CC1)CCO2` [Compound I-30, 4-((1-(cyclopropylmethyl)-1H-benzo[d]imidazol-2-yl)methyl)-N-hydroxy-3,4-dihydro-2H-benzo[b][1,4]oxazine-6-carboxamide], the IC50 was 100 to 1000 nM.
